The text below walks through data of US9873709B2 (priority 2013, dated 2018).

For the assay, the system named is JAK1-dependent STAT6 phosphorylation downstream of IL-13 stimulation in TF-1 human erythroleukemia cells. Description: cells. The settings on record: TF-1, read-out: IL-13-pSTAT6 IC50.
Usually IC50 stands for the concentration needed to halve the response being measured. Consider `CCOC(=O)N1CC=C(c2cccn3nc(Nc4ccc(C(=O)NCCC5CCCN5C)cc4)nc23)CC1` (stereo not shown) [Example 2-111, ethyl 4-[2-[4-[2-(1-methylpyrrolidin-2-yl)ethylcarbamoyl]anilino]-[1,2,4]triazolo[1,5-a]pyridin-8-yl]-3,6-dihydro-2H-pyridine-1-carboxylate], for which the IC50 was 22.6 nM. Regarding `CCOC(=O)N1CC=C(c2cccn3nc(Nc4ccc(C(=O)NCCN5CCNCC5)cc4)nc23)CC1` [Example 2-112, ethyl 4-[2-[4-(2-piperazin-1-ylethylcarbamoyl)anilino]-[1,2,4]triazolo[1,5-a]pyridin-8-yl]-3,6-dihydro-2H-pyridine-1-carboxylate], the IC50 was 233 nM. For `CCOC(=O)N1CC=C(c2cccn3nc(Nc4ccc(C(=O)NC5CCCNC5)cc4)nc23)CC1` (stereo not shown) [Example 2-113, ethyl 4-[2-[4-(3-piperidylcarbamoyl)anilino]-[1,2,4]triazolo[1,5-a]pyridin-8-yl]-3,6-dihydro-2H-pyridine-1-carboxylate] the value was 96.8 nM; for `CCOC(=O)N1CC=C(c2cccn3nc(Nc4ccc(C(=O)NCC5CCCCN5)cc4)nc23)CC1` (stereo not shown) [Example 2-114, ethyl 4-[2-[4-(2-piperidylmethylcarbamoyl)anilino]-[1,2,4]triazolo[1,5-a]pyridin-8-yl]-3,6-dihydro-2H-pyridine-1-carboxylate], 69.2 nM.

Consider `CCOC(=O)N1CC=C(c2cccn3nc(Nc4ccc(C(=O)N5CC(C(=O)N(C)C)C5)cc4)nc23)CC1` [Example 2-115, ethyl 4-[2-[4-[3-(dimethylcarbamoyl)azetidine-1-carbonyl]anilino]-[1,2,4]triazolo[1,5-a]pyridin-8-yl]-3,6-dihydro-2H-pyridine-1-carboxylate], for which the IC50 is 19 nM. For `CCOC(=O)N1CC=C(c2cccn3nc(Nc4ccc(C(=O)N(C)CCc5ccncc5)cc4)nc23)CC1` [Example 2-119, ethyl 4-[2-[4-[methyl-[2-(4-pyridyl)ethyl]carbamoyl]anilino]-[1,2,4]triazolo[1,5-a]pyridin-8-yl]-3,6-dihydro-2H-pyridine-1-carboxylate] the value was 23.9 nM. For `CCOC(=O)N1CC=C(c2cccn3nc(Nc4ccc(C(=O)N5CC6CN(C)CC(C5)O6)cc4)nc23)CC1` [Example 2-123, ethyl 4-[2-[4-(7-methyl-9-oxa-3,7-diazabicyclo[3.3.1]nonane-3-carbonyl)anilino]-[1,2,4]triazolo[1,5-a]pyridin-8-yl]-3,6-dihydro-2H-pyridine-1-carboxylate], the half-inhibitory concentration (IC50) amounted to 48.8 nM.

Turning to `CCOC(=O)N1CC=C(c2cccn3nc(Nc4ccc(C(=O)NCc5cc(C)ccn5)cc4)nc23)CC1` [Example 2-124, ethyl 4-[2-[4-[(4-methyl-2-pyridyl)methylcarbamoyl]anilino]-[1,2,4]triazolo[1,5-a]pyridin-8-yl]-3,6-dihydro-2H-pyridine-1-carboxylate], the IC50 came out at 38.5 nM.

Consider `CCOC(=O)N1CC=C(c2cccn3nc(Nc4ccc(C(=O)N5CCC(CN)C5)cc4)nc23)CC1` (stereo not shown) [Example 2-130, ethyl 4-[2-[4-[3-(aminomethyl)pyrrolidine-1-carbonyl]anilino]-[1,2,4]triazolo[1,5-a]pyridin-8-yl]-3,6-dihydro-2H-pyridine-1-carboxylate], for which the IC50 stood at 226 nM. As for `O=C(CCC(F)(F)F)N1CC=C(c2cccn3nc(Nc4ccc(C(=O)N5CCC6(CCNC6)CC5)cc4)nc23)CC1` [Example 2-136, 1-[4-[2-[4-(2,8-diazaspiro[4.5]decane-8-carbonyl)anilino]-[1,2,4]triazolo[1,5-a]pyridin-8-yl]-3,6-dihydro-2H-pyridin-1-yl]-4,4,4-trifluoro-butan-1-one], the IC50 is 163 nM. As to `O=C(NC1CCCNC1)c1ccc(Nc2nc3c(C4=CCN(C(=O)CCC(F)(F)F)CC4)cccn3n2)cc1` (stereo not shown) [Example 2-137, N-(3-piperidyl)-4-[[8-[1-(4,4,4-trifluorobutanoyl)-3,6-dihydro-2H-pyridin-4-yl]-[1,2,4]triazolo[1,5-a]pyridin-2-yl]amino]benzamide], the IC50 came out at 78.8 nM.

With `O=C(N[C@H]1CCCNC1)c1ccc(Nc2nc3c(C4=CCN(C(=O)CCC(F)(F)F)CC4)cccn3n2)cc1` [Example 2-138, N-[(3S)-3-piperidyl]-4-[[8-[1-(4,4,4-trifluorobutanoyl)-3,6-dihydro-2H-pyridin-4-yl]-[1,2,4]triazolo[1,5-a]pyridin-2-yl]amino]benzamide], the IC50 amounted to 61.9 nM. For `O=C(CCC(F)(F)F)N1CC=C(c2cccn3nc(Nc4ccc(C(=O)N5CCO[C@@H]6CNC[C@@H]65)cc4)nc23)CC1` [Example 2-139, 1-[4-[2-[4-[(4aS,7aR)-3,4a,5,6,7,7a-hexahydro-2H-pyrrolo[3,4-b][1,4]oxazine-4-carbonyl]anilino]-[1,2,4]triazolo[1,5-a]pyridin-8-yl]-3,6-dihydro-2H-pyridin-1-yl]-4,4,4-trifluoro-butane-1-one] the value was 358 nM; for `N#CCCN1CCN(C(=O)c2ccc(Nc3nc4c(C5=CCN(C(=O)CCC(F)(F)F)CC5)cccn4n3)cc2)CC1` [Example 2-142, 3-[4-[4-[[8-[1-(4,4,4-trifluorobutanoyl)-3,6-dihydro-2H-pyridin-4-yl]-[1,2,4]triazolo[1,5-a]pyridin-2-yl]amino]benzoyl]piperazin-1-yl]propanenitrile], 6.6 nM.

Regarding `Cc1ccc(C2CCCN2C(=O)c2ccc(Nc3nc4c(C5=CCN(C(=O)CCC(F)(F)F)CC5)cccn4n3)cc2)nc1` (stereo not shown) [Example 2-143, 4,4,4-trifluoro-1-[4-[2-[4-[2-(5-methyl-2-pyridyl)pyrrolidine-1-carbonyl]anilino]-[1,2,4]triazolo[1,5-a]pyridin-8-yl]-3,6-dihydro-2H-pyridin-1-yl]butan-1-one], the IC50 stood at 7.9 nM. As to `CN1CCN(C(=O)c2ccc(Nc3nc4c(C5=CCN(C(=O)CCC(F)(F)F)CC5)cccn4n3)cc2)CC(CO)C1` (stereo not shown) [Example 2-144, 4,4,4-trifIuoro-1-[4-[2-[4-[6-(hydroxymethyl)-4-methyl-1,4-diazepane-1-carbonyl]anilino]-[1,2,4]triazolo[1,5-a]pyridin-8-yl]-3,6-dihydro-2H-pyridin-1-yl]butan-1-one], the IC50 came to 187 nM. `O=C(CCC(F)(F)F)N1CC=C(c2cccn3nc(Nc4ccc(C(=O)N5CCCC5c5cccnc5)cc4)nc23)CC1` (stereo not shown) [Example 2-145, 4,4,4-trifluoro-1-[4-[2-[4-[2-(3-pyridyl)pyrrolidine-1-carbonyl]anilino]-[1,2,4]triazolo[1,5-a]pyridin-8-yl]-3,6-dihydro-2H-pyridin-1-yl]butan-1-one]: the IC50 turned out to be 6.4 nM.

In the case of `O=C(CCC(F)(F)F)N1CC=C(c2cccn3nc(Nc4ccc(C(=O)N5Cc6cccnc6C5)cc4)nc23)CC1` [Example 2-146, 1-[4-[2-[4-(5,7-dihydropyrrolo[3,4-b]pyridine-6-carbonyl)anilino]-[1,2,4]triazolo[1,5-a]pyridin-8-yl]-3,6-dihydro-2H-pyridin-1-yl]-4,4,4-trifluoro-butan-1-one], the IC50 is 6.5 nM. With `CC1CCN(CCNC(=O)c2ccc(Nc3nc4c(C5=CCN(C(=O)CCC(F)(F)F)CC5)cccn4n3)cc2)CC1` [Example 2-147, N-[2-(4-methyl-1-piperidyl)ethyl]-4-[[8-[1-(4,4,4-trifluorobutanoyl)-3,6-dihydro-2H-pyridin-4-yl]-[1,2,4]triazolo[1,5-a]pyridin-2-yl]amino]benzamide], the IC50 came out at 6.6 nM.
